From ChEMBL document CHEMBL1201862, “PubChem BioAssay data set” (2004)
Activity calls are given as the source filed them.

How the values were obtained:
[1] = Late stage assay provider results from the probe development effort to identify inhibitors of the Plasmodium falciparum M18 Aspartyl Aminopeptidase (M18AAP): radiolabel-based cell-based dose response assay to identify compounds that inhibit P. falciparum growth in RBCs, Set 2..; type: functional
[2] = A549 cell viability loss – cherry-picked samples, cytotoxicity control, dose response (AID 1053184); type: functional, cell-based
[3] = HEK293 cell viability loss – cherry-picked samples, cytotoxicity control, dose response (AID 1053185); type: functional, cell-based
[4] = HepG2 cell viability loss – cherry-picked samples, cytotoxicity control, dose response (AID 1053183); type: functional, cell-based
[5] = molecular target: COUP transcription factor 2 (Homo sapiens, UniProt P24468); assay: Luminescence-based cell-based high throughput dose response assay to identify inhibitors of COUP-TFII (NR2F2).; type: functional;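 further: HEK293 cells transiently cotransfected with COUP-TFII expression vector and reporter; luciferase reporter luminescence driven by COUP-TFII from the pX2-168 reporter plasmid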
Sequence of COUP transcription factor 2 (P24468 whole entry): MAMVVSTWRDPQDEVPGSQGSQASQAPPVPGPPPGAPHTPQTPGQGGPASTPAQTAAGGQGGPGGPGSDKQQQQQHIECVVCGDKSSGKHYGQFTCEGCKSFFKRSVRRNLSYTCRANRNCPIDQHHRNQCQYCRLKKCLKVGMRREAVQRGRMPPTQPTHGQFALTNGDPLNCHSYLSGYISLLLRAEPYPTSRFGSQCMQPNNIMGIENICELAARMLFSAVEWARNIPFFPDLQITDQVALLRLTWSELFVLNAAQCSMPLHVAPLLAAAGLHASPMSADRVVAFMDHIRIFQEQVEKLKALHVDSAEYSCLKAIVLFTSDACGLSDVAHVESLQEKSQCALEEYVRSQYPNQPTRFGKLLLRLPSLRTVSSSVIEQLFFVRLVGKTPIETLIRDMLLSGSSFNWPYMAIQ

[6] = molecular target: Protein Wnt-3a (Mus musculus, UniProt P27467); assay: antagonism of Wnt3a pathway luciferase reporter – Wnt-LIGHT cells, luminescence, selectivity assay for Gli-SUFU antagonist project, dose response (AID 651570); type: functional; details: read-out: IC50_Mean;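 further: Wnt-LIGHT reporter cells stimulated with conditioned medium from Wnt3a-producing cells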
Sequence of Protein Wnt-3a (P27467 whole entry): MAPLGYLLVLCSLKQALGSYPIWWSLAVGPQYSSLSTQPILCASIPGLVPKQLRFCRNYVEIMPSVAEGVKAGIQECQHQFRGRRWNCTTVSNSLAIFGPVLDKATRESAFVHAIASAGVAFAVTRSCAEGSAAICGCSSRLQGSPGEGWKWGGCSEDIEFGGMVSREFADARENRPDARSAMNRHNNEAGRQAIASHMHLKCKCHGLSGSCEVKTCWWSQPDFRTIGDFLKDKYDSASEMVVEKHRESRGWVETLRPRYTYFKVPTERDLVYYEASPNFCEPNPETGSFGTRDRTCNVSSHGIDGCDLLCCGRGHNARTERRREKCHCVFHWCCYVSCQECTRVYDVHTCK

[7] = molecular target: T1, High affinity choline transporter 1 (Homo sapiens, UniProt Q9GZV3); assay: inhibition of SLC5A7-mediated choline transport – cell-based, HEK-293 hCHT, [3H]-choline uptake, dose response (AID 652177); type: functional
T1 sequence (Q9GZV3 whole entry): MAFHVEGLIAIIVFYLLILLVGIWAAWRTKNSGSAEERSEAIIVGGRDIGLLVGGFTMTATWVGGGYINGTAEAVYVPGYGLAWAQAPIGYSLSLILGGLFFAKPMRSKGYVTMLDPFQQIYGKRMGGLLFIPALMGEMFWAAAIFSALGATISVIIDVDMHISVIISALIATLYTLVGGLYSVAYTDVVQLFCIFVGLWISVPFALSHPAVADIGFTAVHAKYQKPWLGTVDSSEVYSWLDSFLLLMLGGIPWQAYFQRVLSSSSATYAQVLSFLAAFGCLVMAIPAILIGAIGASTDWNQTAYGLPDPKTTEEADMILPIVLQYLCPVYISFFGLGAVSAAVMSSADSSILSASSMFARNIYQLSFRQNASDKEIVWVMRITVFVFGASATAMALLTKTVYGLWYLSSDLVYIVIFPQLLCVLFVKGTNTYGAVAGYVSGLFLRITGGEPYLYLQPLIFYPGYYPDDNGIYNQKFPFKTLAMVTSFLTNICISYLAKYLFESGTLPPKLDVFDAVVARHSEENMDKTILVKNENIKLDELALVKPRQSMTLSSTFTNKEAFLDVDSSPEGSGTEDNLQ

[8] = cells
[9] = test system: H4; assay: Luminescence Cell-Based Dose Response HTS to Identify Activators of 5'UTR Stem-Loop Driven Prion Protein mRNA Translation in H4 Neuroglioblastoma Cells. [Related pubchem assays: 1829 (Project Summary), 1814 (Primary HTS)]; type: functional; details: Homo sapiens
[10] = Luminescence Cell-Based Dose Response to Identify Activators of 5'UTR Stem-Loop Driven Prion Protein mRNA Translation in H4-C Neuroglioblastoma Cells. [Related pubchem assays: 1829 (Project Summary), 1814 (Primary HTS)]; type: functional
[11] = molecular target: T2, Oxysterols receptor LXR-beta (Homo sapiens, UniProt P55055); type: functional, cell-based;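 further: agonist activity at LXR measured by a cell-based luminescence readout across a dose range, run as a counterscreen for daf-12 agonists; HEK293 cells with Gal4-LXR fusion and GAL4-driven luciferase reporter; potency for activation of Gal4-LXR reporter so compounds are agonists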
T2 sequence (P55055 whole entry): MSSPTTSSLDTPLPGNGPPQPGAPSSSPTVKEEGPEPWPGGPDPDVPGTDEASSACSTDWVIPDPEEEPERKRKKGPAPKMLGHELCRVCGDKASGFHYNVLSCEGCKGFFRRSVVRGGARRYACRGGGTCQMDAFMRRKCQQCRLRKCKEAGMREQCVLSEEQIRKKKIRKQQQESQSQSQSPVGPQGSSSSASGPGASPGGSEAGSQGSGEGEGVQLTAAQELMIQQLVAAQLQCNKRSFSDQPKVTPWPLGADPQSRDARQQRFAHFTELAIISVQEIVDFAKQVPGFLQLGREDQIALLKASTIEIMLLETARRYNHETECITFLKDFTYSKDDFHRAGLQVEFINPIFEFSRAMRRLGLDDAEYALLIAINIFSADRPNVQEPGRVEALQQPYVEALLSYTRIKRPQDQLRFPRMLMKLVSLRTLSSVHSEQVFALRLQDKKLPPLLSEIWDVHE

[12] = molecular target: FAD-linked sulfhydryl oxidase ALR (Homo sapiens, UniProt P55789); assay: ALR-catalysed DTT oxidation blockers – biochemical, H2O2 detection, luminescence, cherry-pick, dose response (AID 493248)
[13] = Luminescence Cell-Based Dose Response HTS to Identify Activators of Luciferase Translation or Activity in H4 […] Cells. [Related pubchem assays: 1829 (Project Summary), 1814 (Primary HTS)]; type: functional
[14] = Luminescence Cell-Based Dose Confirmation to Identify Activators of 5'UTR Stem-Loop Driven Alpha-Synuclein mRNA Translation in H4 Neuroglioblastoma Cells. [Related pubchem assays: 1829 (Project Summary), 1814 (Primary HTS)]; type: functional
[15] = Luminescence Cell-Based Dose Response to Identify Activators of Luciferase Translation or Activity in H4-C Neuroglioblastoma Cells. [Related pubchem assays: 1829 (Project Summary), 1814 (Primary HTS)]; type: functional
[16] = A Cell-Based Confirmatory Screen for Compounds that Inhibit VEEV, TC-83 (8).; type: functional
[17] = molecular target: T3, Short transient receptor potential channel 4 (Mus musculus, UniProt Q9QUQ5); assay: calcium entry via TRPC4 opening agents – cell-based, HEK293 TRPC4/mu-opioid, Fluo-4 calcium, dose response (AID 434937); type: functional
T3 sequence (Q9QUQ5 whole entry): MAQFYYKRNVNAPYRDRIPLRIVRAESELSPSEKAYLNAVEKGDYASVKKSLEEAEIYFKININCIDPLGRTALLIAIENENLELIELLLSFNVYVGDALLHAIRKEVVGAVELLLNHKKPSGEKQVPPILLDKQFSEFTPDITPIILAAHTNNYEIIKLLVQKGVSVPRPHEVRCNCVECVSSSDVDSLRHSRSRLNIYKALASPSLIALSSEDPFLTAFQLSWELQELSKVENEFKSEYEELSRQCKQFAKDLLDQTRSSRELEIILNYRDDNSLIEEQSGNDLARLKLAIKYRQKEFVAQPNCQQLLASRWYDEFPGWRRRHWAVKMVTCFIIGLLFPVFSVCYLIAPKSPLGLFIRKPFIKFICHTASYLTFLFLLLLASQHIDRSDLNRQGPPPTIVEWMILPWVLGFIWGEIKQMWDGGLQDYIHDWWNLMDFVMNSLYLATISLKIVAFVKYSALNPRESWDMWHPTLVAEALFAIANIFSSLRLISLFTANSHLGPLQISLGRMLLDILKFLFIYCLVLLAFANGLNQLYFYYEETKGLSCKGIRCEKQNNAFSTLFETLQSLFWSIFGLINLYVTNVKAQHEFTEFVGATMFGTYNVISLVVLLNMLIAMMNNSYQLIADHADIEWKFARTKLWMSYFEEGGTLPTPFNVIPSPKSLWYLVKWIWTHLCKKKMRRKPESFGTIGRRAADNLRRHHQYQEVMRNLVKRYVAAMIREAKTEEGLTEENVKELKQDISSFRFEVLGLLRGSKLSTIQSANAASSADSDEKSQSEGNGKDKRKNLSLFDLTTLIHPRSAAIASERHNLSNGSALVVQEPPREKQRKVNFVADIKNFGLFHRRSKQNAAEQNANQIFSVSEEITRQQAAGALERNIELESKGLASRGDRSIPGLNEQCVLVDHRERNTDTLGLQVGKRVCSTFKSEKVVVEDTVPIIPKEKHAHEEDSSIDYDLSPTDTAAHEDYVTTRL

[18] = HGIII-sPLA2 enzyme inhibition potency – biochemical, QFRET, IC50, dose response (AID 743457);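 further: green fluorescence rise as the enzyme cleaves BODIPY PC-A2 in liposomes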
[19] = human cervical cancer cell viability loss – 24 h, plate reader, dry powder, cytotoxicity control, dose response (AID 686928); type: functional, cell-based; details: HeLa
[20] = molecular target: Kallikrein-7 (Homo sapiens, UniProt P49862); assay: Fluorescence Intensity-based biochemical primary high throughput dose response assay to identify activators of kallikrein-7 (K7) zymogen.
Sequence of Kallikrein-7 (P49862 whole entry): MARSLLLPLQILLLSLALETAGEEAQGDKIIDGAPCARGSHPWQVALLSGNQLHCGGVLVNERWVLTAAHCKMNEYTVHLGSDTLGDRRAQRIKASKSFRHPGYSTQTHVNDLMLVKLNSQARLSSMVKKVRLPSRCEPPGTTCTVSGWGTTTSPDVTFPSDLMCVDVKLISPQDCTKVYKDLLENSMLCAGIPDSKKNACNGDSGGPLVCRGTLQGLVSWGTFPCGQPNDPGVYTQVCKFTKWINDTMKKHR

[21] = molecular target: Protein disulfide-isomerase (Homo sapiens, UniProt P07237); assay: inhibition of PDI-mediated insulin reduction – biochemical, turbidity, dry powder samples, set 2, confirmation (AID 652146)
Sequence of Protein disulfide-isomerase (P07237 whole entry): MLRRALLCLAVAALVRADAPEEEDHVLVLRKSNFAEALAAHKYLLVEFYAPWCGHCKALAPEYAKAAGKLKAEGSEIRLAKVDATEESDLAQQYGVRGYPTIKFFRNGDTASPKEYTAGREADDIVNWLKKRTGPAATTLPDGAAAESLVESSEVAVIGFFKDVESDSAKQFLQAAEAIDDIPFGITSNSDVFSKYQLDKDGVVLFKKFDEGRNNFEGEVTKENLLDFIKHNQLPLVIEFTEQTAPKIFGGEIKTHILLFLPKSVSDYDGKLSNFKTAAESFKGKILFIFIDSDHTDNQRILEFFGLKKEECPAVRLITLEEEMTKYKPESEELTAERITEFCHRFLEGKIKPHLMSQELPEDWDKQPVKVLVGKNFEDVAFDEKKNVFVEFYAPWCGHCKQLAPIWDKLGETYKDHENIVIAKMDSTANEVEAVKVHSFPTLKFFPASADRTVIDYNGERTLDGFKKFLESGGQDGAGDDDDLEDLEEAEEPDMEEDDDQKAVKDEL

[22] = loss of viability in embryonic kidney cells – cell-based, HEK293T, ATP luminescence, dry powder, cytotoxicity control, dose response (AID 652119); type: functional; details: HEK293
[23] = test system: HEK293; assay: viability loss in HEK293T cells – cell-based, ATP luminescence, cherry-pick samples, cytotoxicity control, dose response (AID 687005); type: functional; details: Homo sapiens;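 further: cells exposed to compound for 48 hours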
[24] = HEK293 Cytotoxicity Assay Measured in Cell-Based System Using Plate Reader - 7071-01_Inhibitor_Dose_CherryPick_Activity_Set2.; type: functional
[25] = test system: HeLa; assay: viability loss in HeLa cells – cell-based, ATP luminescence, cherry-pick samples, cytotoxicity control, dose response (AID 687004); type: functional; details: Homo sapiens
[26] = test system: Cryptococcus neoformans; assay: PubChem AID 686997; type: functional, organism-based
[27] = potency of ADAM10 substrate cleavage blockers – biochemical, QFRET, dose response (AID 743254);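 further: ADAM10 enzyme with the DM2 quenched FRET peptide as substrate; EDANS fluorescence gain as the protease cuts the substrate; inhibitor potency against ADAM10 proteolytic activity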
[28] = molecular target: Estrogen receptor beta (Homo sapiens, UniProt Q92731);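 further: recombinant ER-beta bound to coactivator SRC1 peptide in presence of estradiol agonist; inhibitors block coactivator peptide binding and lower the FRET signal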
Sequence of Estrogen receptor beta (Q92731 whole entry): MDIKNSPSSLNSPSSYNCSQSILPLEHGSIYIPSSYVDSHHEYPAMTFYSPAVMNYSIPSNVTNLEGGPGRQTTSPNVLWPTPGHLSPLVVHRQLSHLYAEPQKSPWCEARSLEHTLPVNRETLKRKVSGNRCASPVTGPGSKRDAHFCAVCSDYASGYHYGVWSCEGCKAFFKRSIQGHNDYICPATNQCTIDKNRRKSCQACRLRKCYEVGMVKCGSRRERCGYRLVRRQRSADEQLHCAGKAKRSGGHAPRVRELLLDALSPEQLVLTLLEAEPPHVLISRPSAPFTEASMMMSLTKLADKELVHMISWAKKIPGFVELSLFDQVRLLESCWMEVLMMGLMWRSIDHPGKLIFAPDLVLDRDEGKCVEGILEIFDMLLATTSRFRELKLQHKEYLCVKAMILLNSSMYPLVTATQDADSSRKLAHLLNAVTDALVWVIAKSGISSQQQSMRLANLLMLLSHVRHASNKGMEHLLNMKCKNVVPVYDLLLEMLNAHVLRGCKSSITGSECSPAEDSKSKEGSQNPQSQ

[29] = fluconazole-exposed Candida albicans growth modulators – fluorescence, retest, confirmation (AID 2467); type: functional, cell-based
[30] = molecular target: Disintegrin and metalloproteinase domain-containing protein 17 (Homo sapiens, UniProt P78536); assay: inhibition of ADAM17 substrate cleavage – biochemical, quenched FRET substrate, counter-screen for ADAM10 exosite inhibitor project, dose response (AID 743253)
Sequence of Disintegrin and metalloproteinase domain-containing protein 17 (P78536 whole entry, the tested form may be a part): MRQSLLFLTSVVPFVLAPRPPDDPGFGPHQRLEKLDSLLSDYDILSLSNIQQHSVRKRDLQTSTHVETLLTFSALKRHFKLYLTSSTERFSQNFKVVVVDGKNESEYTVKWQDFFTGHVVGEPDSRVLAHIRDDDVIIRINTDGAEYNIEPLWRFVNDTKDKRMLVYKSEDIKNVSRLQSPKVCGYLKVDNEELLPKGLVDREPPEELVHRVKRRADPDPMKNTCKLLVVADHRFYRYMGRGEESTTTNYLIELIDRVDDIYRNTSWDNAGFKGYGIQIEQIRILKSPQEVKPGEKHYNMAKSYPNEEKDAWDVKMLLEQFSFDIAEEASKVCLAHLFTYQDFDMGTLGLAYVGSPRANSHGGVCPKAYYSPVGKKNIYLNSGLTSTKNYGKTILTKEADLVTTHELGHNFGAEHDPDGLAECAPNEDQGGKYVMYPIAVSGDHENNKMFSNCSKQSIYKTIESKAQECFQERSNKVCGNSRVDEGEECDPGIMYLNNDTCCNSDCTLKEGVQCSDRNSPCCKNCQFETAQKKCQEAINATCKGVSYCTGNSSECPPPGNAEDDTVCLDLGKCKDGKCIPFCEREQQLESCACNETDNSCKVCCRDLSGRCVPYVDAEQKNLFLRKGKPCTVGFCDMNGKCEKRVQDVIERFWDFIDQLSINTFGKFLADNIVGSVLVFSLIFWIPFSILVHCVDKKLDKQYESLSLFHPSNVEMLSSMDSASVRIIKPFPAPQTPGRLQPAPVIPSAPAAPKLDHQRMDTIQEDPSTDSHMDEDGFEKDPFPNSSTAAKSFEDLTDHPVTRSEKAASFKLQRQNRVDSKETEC

[31] = test system: Streptococcus; assay: GAS UMAA2166 growth inhibition – luminescence, BacTiterGlo, counter-screen for streptokinase expression inhibitor project, dose response (AID 1915); type: functional, organism-based;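 further: potency for reduction of bacterial viability or growth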
[32] = test system: Streptococcus sp. 'group A'; assay: Streptococcus pyogenes SK(-)GAS viability under kanamycin – luminescence, BacTiterGlo, confirmation, counter-screen for streptokinase expression inhibitor project, dose response (AID 1900); type: functional, organism-based
[33] = NIH-3T3 fibroblast cytotoxicity, dose response, cytotoxicity control, cell-based, fluorescence, Alamar Blue, secondary assay (AID 2327); type: functional;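 further: NIH-3T3 mouse fibroblasts cultured with fluconazole at 8 µg/mL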
[34] = molecular target: Potassium channel subfamily K member 3 (Homo sapiens, UniProt O14649); assay: inhibition of human KCNK3 channel flux – CHO cells, FluxOR thallium flux, SAR follow-up (AID 652212); type: functional
Sequence of Potassium channel subfamily K member 3 (O14649 whole entry): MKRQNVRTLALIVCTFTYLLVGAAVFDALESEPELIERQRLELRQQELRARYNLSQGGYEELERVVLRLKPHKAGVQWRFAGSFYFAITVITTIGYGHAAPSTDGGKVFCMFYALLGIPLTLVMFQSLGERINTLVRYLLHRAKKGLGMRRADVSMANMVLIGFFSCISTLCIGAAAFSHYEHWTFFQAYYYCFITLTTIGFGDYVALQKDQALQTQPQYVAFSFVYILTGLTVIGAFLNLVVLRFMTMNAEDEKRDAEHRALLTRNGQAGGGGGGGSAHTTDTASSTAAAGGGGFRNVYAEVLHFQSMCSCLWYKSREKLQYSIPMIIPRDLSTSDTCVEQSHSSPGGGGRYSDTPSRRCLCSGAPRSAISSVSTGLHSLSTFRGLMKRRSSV

[35] = molecular target: Potassium channel subfamily K member 9 (Homo sapiens, UniProt Q9NPC2); assay: KCNK9 flux blockade, concentration-response – cell-based, FluxOR thallium flux, selectivity assay for TASK1 inhibitor project, SAR follow-up (AID 652211); type: functional;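 further: potency is for inhibitors of the channel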
Sequence of Potassium channel subfamily K member 9 (Q9NPC2 whole entry): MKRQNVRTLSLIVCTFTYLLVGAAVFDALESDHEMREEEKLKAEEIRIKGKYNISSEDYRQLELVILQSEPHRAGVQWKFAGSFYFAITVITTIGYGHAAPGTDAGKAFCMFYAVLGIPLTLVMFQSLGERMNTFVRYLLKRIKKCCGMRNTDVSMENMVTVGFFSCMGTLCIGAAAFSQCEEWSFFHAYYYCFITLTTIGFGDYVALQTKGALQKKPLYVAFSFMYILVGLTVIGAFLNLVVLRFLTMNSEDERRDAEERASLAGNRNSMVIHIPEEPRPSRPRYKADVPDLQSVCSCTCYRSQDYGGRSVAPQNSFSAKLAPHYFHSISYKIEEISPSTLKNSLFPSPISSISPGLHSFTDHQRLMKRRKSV

[36] = molecular target: Voltage-gated inwardly rectifying potassium channel KCNH2 (Homo sapiens, UniProt Q12809); assay: off-target hERG block by TASK1 inhibitor candidates – FluxOR thallium flux, concentration-response, CHO cells, selectivity assay for TASK1 inhibitor project, SAR follow-up (AID 652194); type: functional, cell-based
Sequence of Voltage-gated inwardly rectifying potassium channel KCNH2 (Q12809 whole entry): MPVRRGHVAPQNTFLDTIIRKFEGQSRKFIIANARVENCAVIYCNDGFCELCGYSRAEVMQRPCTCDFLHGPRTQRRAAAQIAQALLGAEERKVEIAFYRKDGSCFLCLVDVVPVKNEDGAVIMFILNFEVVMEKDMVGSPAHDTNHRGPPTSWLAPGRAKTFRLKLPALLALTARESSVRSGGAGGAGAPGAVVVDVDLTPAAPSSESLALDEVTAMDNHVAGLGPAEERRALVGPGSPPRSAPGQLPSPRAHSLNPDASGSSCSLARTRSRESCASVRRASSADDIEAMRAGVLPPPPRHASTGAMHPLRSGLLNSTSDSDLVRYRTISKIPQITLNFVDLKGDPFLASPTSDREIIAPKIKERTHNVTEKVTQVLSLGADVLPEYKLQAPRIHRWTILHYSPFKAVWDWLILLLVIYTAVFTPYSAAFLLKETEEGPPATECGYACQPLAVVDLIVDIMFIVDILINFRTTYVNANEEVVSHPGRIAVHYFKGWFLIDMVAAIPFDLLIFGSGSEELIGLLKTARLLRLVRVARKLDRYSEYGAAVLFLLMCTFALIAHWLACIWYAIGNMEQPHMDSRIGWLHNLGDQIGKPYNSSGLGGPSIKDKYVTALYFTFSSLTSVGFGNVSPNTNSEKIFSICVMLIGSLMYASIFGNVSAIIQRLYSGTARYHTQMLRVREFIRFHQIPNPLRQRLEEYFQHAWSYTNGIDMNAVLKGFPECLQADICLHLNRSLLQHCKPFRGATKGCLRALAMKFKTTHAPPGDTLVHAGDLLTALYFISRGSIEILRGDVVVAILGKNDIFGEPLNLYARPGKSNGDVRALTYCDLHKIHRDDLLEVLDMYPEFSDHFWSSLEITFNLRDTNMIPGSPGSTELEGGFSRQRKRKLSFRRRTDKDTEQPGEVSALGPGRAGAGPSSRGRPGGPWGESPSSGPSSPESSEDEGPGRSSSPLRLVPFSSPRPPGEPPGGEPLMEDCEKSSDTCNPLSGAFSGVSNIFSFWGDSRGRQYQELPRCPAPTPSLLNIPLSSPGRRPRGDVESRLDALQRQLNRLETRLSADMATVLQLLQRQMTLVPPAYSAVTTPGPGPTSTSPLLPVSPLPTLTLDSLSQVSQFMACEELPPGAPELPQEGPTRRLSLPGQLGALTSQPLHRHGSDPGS

In the case of `CN(CCc1ccc(O)c(O)c1)c1ccnc2ccccc12`, the IC50 [1] is reported as 4.8 µM (active).

With `Fc1cccc(CN2C[C@@H]3N[C@H](C2)[C@H]3c2ccc(/C=C/c3ccccc3)cc2)c1` the AC50 [2] was 13.7 µM (active), the AC50 [3] was 13.2 µM (active) and the AC50 [4] was 18.8 µM (active).

In the case of `CCC(C)NC(=O)CCC(=O)OC1O[C@H]2OC3(C)CC[C@H]4[C@H](C)CCC(C1C)C24OO3` (some centres not stated), the IC50 [5] is reported as 468 µM (inactive) and the IC50 [6] is reported as 0.238 µM (active).

In the case of `CCc1cc(CNC(=O)c2ccc(OC)c(OCCN3CCCCC3)c2)on1`, the IC50 [7] is reported as 5.91 µM (active).

For `COc1ccc(C2C3=C(CC(C)(C)CC3=O)N(C)C3=C2C(=O)CC(C)(C)C3)cc1`, the AC50 [8] was 2.07 µM (active).

For `Cc1nc(N)sc1N=Nc1ccc(Br)cc1`, the EC50 [9] was > 120 µM (not active), the EC50 [10] was 0.285 µM (active) and the EC50 [11] was > 67.5 µM (inactive). For the same compound, the AC50 [12] was 0.753 µM (active), the EC50 [13] was < 0.1 µM (active) and the EC50 [14] was 0.28 µM (active). For the same compound, the EC50 [15] was 0.303 µM (active).

With `O=c1nc(Nc2cccc(OCc3ccccc3)c2)sc2ncccc12` the IC50 [16] was 1.64 µM (active).

In the case of `Cc1ccc(C(=O)NC(=S)NNC(=O)c2ccccc2)cc1`, the EC50 [17] is reported as 1.33 µM (active) and the IC50 [18] is reported as 51.6 µM (inactive).

For `O=C(Nc1nnc(-c2ccc3c(c2)OCCO3)o1)C1CCCCCC1`, the AC50 [19] was > 200 µM (inactive).

With `CNc1ccc(-c2cccc(CO)c2)cn1` the EC50 [20] was > 7.72 µM (active).

In the case of `CCN(C)C(=O)C1(CCOc2ccccc2)CCN(Cc2ccc(O)c(Cl)c2)CC1`, the AC50 [21] is reported as 3 µM (active) and the AC50 [22] is reported as > 52 µM (inactive).

In the case of `COC(=O)C1=C(C)N(Cc2ccc(Br)cc2)C(=S)NC1c1ccc(OC)cc1` (configuration not stated), the AC50 [23] is reported as 22.2 µM (active), the AC50 [24] is reported as 22.2 µM (active) and the AC50 [25] is reported as > 47 µM (inactive). The AC50 [26] was > 60 µM (inactive) and the AC50 ([26]; Cryptococcus neoformans) was 36.4 µM (active).

For `Cc1cc(NC(=O)c2c(F)cccc2Cl)n(-c2nc3ccccc3[nH]2)n1`, the IC50 [27] was > 7.72 µM (active), the IC50 [28] was > 50 µM (not active) and the EC50 [29] was > 38 µM (not active). The IC50 [30] was > 69.5 µM (inactive), the EC50 [31] was 7.12 µM (active) and the EC50 [32] was 6.4 µM (active). The EC50 [33] was > 160 µM (inconclusive).

In the case of `CCCC(=O)C1CCN(c2ncnc3c2CN(C(=O)c2ccc(-c4ccccc4)cc2)CC3)CC1`, the IC50 [34] is reported as 0.021 µM (active), the IC50 [35] is reported as 0.14 µM (active) and the IC50 [36] is reported as 7.68 µM (active).
